Legend:
Assay in all cases: relative viability (nuclei count vs DMSO), 5 days (fraction); higher = more cells survive
[1] = compound: CC(C)C[C@H](NC(=O)[C@H](Cc1ccccc1)NC(=O)c1cnccn1)B(O)O [Bortezomib] + CS(=O)(=O)CCNCc1ccc(-c2ccc3ncnc(Nc4ccc(OCc5cccc(F)c5)c(Cl)c4)c3c2)o1 [Lapatinib] (partner 2 µM)
Method in brief: (§1)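 Relative viability is defined as nuclei in treated wells over nuclei in vehicle wells. Duplicate plates were run and medians reported. Lung cancer cell lines in 1536-well plates were dosed by pin tool one day after seeding, with one drug or with a fixed anchor-drug dose plus five library-drug doses (not always all listed) in √10 steps, and nuclei were counted after 5 days.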

[2] = compound: CC1=CC(=NN1)NC2=CC(=NC(=N2)/C=C/C3=CC=CC=C3)N4CCN(CC4)C + CS(=O)(=O)CCNCc1ccc(-c2ccc3ncnc(Nc4ccc(OCc5cccc(F)c5)c(Cl)c4)c3c2)o1 [Lapatinib] (partner 2 µM)
Method in brief: as §1

[3] = compound: COC1=CC(c2cc3ccccc3[nH]2)=N/C1=C\c1[nH]c(C)cc1C [Obatoclax] + CCNC(=O)c1noc(-c2cc(C(C)C)c(O)cc2O)c1-c1ccc(CN2CCOCC2)cc1 [Luminespib] (partner 0.01 µM)
Method in brief: as §1

[4] = compound: COC1=CC(c2cc3ccccc3[nH]2)=N/C1=C\c1[nH]c(C)cc1C [Obatoclax] + COc1cccc2cc(-c3nc([C@H]4CC[C@H](C(=O)O)CC4)n4ncnc(N)c34)[nH]c12 [OSI-027] (partner 0.5 µM)
Method in brief: as §1

Cell Line | relative viability ([1]; first compound 0.0002 µM) | relative viability ([1]; first compound 0.000632 µM) | relative viability ([1]; first compound 0.002 µM) | relative viability ([1]; first compound 0.006325 µM) | relative viability ([1]; first compound 0.02 µM) | relative viability ([2]; first compound 0.08 µM) | relative viability ([2]; first compound 0.253 µM) | relative viability ([2]; first compound 0.8 µM) | relative viability ([2]; first compound 2.53 µM) | relative viability ([2]; first compound 8 µM) | relative viability ([3]; first compound 0.01 µM) | relative viability ([3]; first compound 0.03162 µM) | relative viability ([3]; first compound 0.1 µM) | relative viability ([3]; first compound 0.3162 µM) | relative viability ([3]; first compound 1 µM) | relative viability ([4]; first compound 0.01 µM) | relative viability ([4]; first compound 0.03162 µM) | relative viability ([4]; first compound 0.1 µM) | relative viability ([4]; first compound 0.3162 µM) | relative viability ([4]; first compound 1 µM)
201T | 1.01 | 0.99 | 1.06 | 1.05 | 0.512 | 1.02 | 1.07 | 1.04 | 0.946 | 0.915 | 1.1 | 1.04 | 1.06 | 1.08 | 1.12 | 0.762 | 0.786 | 0.773 | 0.748 | 0.822
A549 | 0.981 | 0.872 | 0.957 | 0.0567 | 0.0601 | 0.924 | 0.954 | 0.772 | 0.102 | 0.0367 | – | – | – | – | – | – | – | – | – | –
A-427 | 1.05 | 0.975 | 1.11 | 1.02 | 0.19 | 1.22 | 1.05 | 0.957 | 0.542 | 0.513 | 0.952 | 0.962 | 0.916 | 0.775 | 0.674 | 0.513 | 0.462 | 0.49 | 0.418 | 0.399
ABC-1 | 0.941 | 1.06 | 0.605 | 0.606 | 0.495 | 0.957 | 1.15 | 1.23 | 1.13 | 0.453 | 0.551 | 0.555 | – | 0.322 | 0.397 | 0.576 | 0.571 | 0.424 | 0.373 | 0.276
BEN | 0.72 | 0.74 | 0.61 | 0.339 | 0.114 | 0.75 | 0.668 | 0.742 | 0.326 | 0.229 | 0.507 | 0.243 | – | 0.26 | 0.291 | 0.28 | 0.297 | – | 0.283 | 0.32
CAL-12T | 0.683 | 0.617 | 0.561 | 0.246 | 0.201 | 0.654 | 0.778 | 0.663 | 0.324 | 0.141 | 0.493 | 0.292 | 0.273 | 0.122 | 0.118 | 0.62 | 0.609 | 0.829 | 0.138 | 0.128
COR-L23 | 0.814 | 1.1 | 0.771 | 0.0607 | 0.0542 | 0.98 | 1.51 | 1.1 | 0.22 | 0.0755 | 0.556 | 0.638 | 0.45 | 0.178 | 0.115 | 0.715 | 0.853 | 0.786 | 0.405 | 0.177
Calu-6 | 0.961 | 1.03 | 1.02 | 0.138 | 0.109 | 0.93 | 0.966 | 0.793 | 0.195 | 0.137 | – | – | – | – | – | – | – | – | – | –
ChaGo-K-1 | – | – | – | – | – | – | – | – | – | – | 0.718 | 0.565 | 0.487 | 0.561 | 0.426 | 0.694 | 0.549 | 0.522 | 0.512 | 0.63
EBC-1 | 0.221 | 0.228 | 0.204 | 0.164 | 0.151 | 0.214 | 0.223 | 0.254 | 0.209 | 0.153 | – | – | – | – | – | – | – | – | – | –
HCC-78 | 0.899 | 0.791 | 0.715 | 0.826 | 0.153 | 0.673 | 1.04 | 0.87 | 0.68 | 1.27 | – | – | – | – | – | 0.393 | 0.341 | 0.586 | 0.539 | 0.378
HCC-366 | 0.861 | 1.01 | 1.03 | 0.875 | 0.0176 | 0.928 | 1.13 | 0.996 | 0.0251 | 0.0162 | – | – | – | – | – | 0.961 | 0.847 | 0.827 | 0.821 | 0.208
IA-LM | 0.828 | 0.851 | 0.432 | 0.0336 | 0.0551 | – | 0.885 | 0.961 | 0.638 | 0.113 | – | – | – | – | – | – | – | – | – | –
LCLC-103H | – | – | – | – | – | – | – | – | – | – | 0.948 | 0.875 | 1.02 | 0.911 | 0.969 | 0.462 | 0.462 | 0.404 | 0.457 | 0.541
NCI-H441 | – | – | – | – | – | – | – | – | – | – | 0.416 | 0.316 | 0.278 | 0.223 | 0.236 | 0.772 | 0.502 | 0.704 | 0.354 | 0.271
NCI-H522 | – | – | – | – | – | – | – | – | – | – | 1.17 | 1.1 | 1.07 | – | 1.01 | 0.7 | 0.718 | 0.71 | 0.734 | 0.775
NCI-H1299 | 0.959 | 0.93 | 0.933 | 0.463 | 0.16 | 0.955 | 0.977 | 0.982 | 0.685 | 0.257 | – | – | – | – | – | – | – | – | – | –
NCI-H1623 | – | – | – | – | – | – | – | – | – | – | 0.561 | 0.437 | 0.662 | 0.571 | 0.547 | 0.429 | 0.434 | 0.47 | 0.389 | 0.471
NCI-H1648 | – | – | – | – | – | – | – | – | – | – | – | – | – | – | – | 0.253 | 0.226 | 0.413 | 0.269 | 0.232
NCI-H1703 | 1.23 | 0.947 | 0.184 | 0.135 | 0.145 | 1.11 | 0.975 | 0.373 | 0.177 | 0.167 | – | – | – | – | – | – | – | – | – | –
NCI-H2342 | – | – | – | – | – | – | – | – | – | – | 0.592 | 0.87 | 0.777 | 0.644 | 0.716 | 0.654 | 0.615 | 0.728 | 0.507 | 0.618
SW 900 | – | – | – | – | – | – | – | – | – | – | 0.164 | 0.153 | 0.179 | 0.131 | 0.148 | 0.54 | 0.512 | 0.709 | 0.383 | 0.258

Source: the supplement of paper PMC10307832
